# Assay results: the supplement of paper PMC6723410
# “And” between values parts separate entries of the source, which are not always exact repeats. Identical values can stand only once.
# Test system: GUMC-403
# Test: viability at highest tested concentration (max response) relative to DMSO (% of DMSO control); higher = less cytotoxic
# Settings: library / dose series: MIPE library, 11-point 1:3 dilution; top concentration 4.61 µM; 48 h
# Summary of the method: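 Plates of 1536 wells were seeded with 700 patient-derived GUMC-403 papilloma cells per well, grown by conditional reprogramming, in 5 μL F + Y medium and kept overnight at 37 °C. Compounds followed at 23 nL by pin tool over an 11-point 1:3 series, for 48 h. After a CellTiter-Glo luminescence read on a ViewLux, signals were set against vehicle wells as 100% and empty wells as 0%. The reported number is viability at the highest tested concentration relative to vehicle control.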
row,SMILES,viability
1,CC(C)(C)[C@H](NC(=O)c1ccc(N)c(Cl)c1)C(=O)N1CCC[C@H]1C(=O)N[C@H](C#N)CC(=O)O,131

# Same assay, conditions: library / dose series: MIPE library, 11-point 1:3 dilution; top concentration 23 µM; 48 h
row,SMILES,viability
1,O=C1NC(=O)/C(=C/c2ccc3nccnc3c2)S1,49.8

# Same assay, conditions: library / dose series: MIPE library, 11-point 1:3 dilution; top concentration 46.1 µM; 48 h
row,SMILES,viability
1,N=C(N)NC(=O)c1nc(Cl)c(N)nc1N,125
2,CO[C@H]1/C=C/O[C@@]2(C)Oc3c(C)c(O)c4c(c3C2=O)C2=NC3(CCN(CC(C)C)CC3)NC2=C(NC(=O)/C(C)=C\C=C\[C@H](C)[C@H](O)[C@@H](C)[C@@H](O)[C@@H](C)[C@H](OC(C)=O)[C@@H]1C)C4=O,118
3,O=P1(NCCCl)OCCCN1CCCl (centres undefined),107
4,CCOC(=O)[C@@H](N)CCC(=O)N[C@@H](CSCc1ccccc1)C(=O)N[C@@H](C(=O)OCC)c1ccccc1,95.5
5,CCN1CCC(n2cc(CNc3cc(Cl)c4ncc(C#N)c(Nc5ccc(F)c(Cl)c5)c4c3)nn2)CC1,97
6,N#Cc1ccc(Oc2ccc3c(c2)COB3O)cc1,124
7,CCN(CC)CCCCNc1ncc2cc(-c3cc(OC)cc(OC)c3)c(NC(=O)NC(C)(C)C)nc2n1,128
8,CO[C@H]1C[C@@H]2CC[C@@H](C)[C@@](O)(O2)C(=O)C(=O)N2CCCC[C@H]2C(=O)O[C@H]([C@@H](C)C[C@@H]2CC[C@@H](O)[C@H](OC)C2)CC(=O)[C@H](C)/C=C(\C)[C@@H](O)[C@@H](OC)C(=O)[C@H](C)C[C@H](C)/C=C/C=C/C=C/1C,106
9,COc1cc(C(=O)N2CCC(N3CCN(C)CC3)CC2)ccc1Nc1ncc2c(n1)N(C)c1ccccc1C(=O)N2C,78.9
10,C\C1=N\N(C(=O)C1)C2=CC=CC=C2,97.2
11,N#C[C@H](O[C@@H]1O[C@H](CO[C@@H]2O[C@H](CO)[C@@H](O)[C@H](O)[C@H]2O)[C@@H](O)[C@H](O)[C@H]1O)c1ccccc1,98.6
12,Nc1ncnc2nc(-c3ccc(N4CCOCC4)nc3)cc(-c3cccc(Br)c3)c12,110
13,CC(C)CNc1ccnc(NCc2csc(-c3ccccc3)n2)n1,100
14,CN1CCC[C@@H]1CCO[C@](C)(c1ccccc1)c1ccc(Cl)cc1,103
15,CCCCC(C=O)NC(=O)C(CC(C)C)NC(=O)OCc1ccccc1 (centres undefined),82
16,CN\1C(=O)/C(=C(\N=C1N2CCCC[S+]2([O-])=O)C(=O)NCC3=CC=C(F)C=C3)O,121
17,COC1=CC=C2[C@H]3CC[C@]4(C)[C@H](CC[C@H]4[C@@H]3CCC2=C1)NCCCCCCN5C(=O)\C=C/C5=O,129
18,Nc1nc(-c2nn(Cc3ccccc3F)c3ncccc23)nc(N)c1N1CCOCC1,111
19,COc1cc2nc(N3CCCN(C)CC3)nc(NC3CCN(Cc4ccccc4)CC3)c2cc1OC,13.6
20,CN1CCN2c3ncccc3Cc3ccccc3C2C1 (centres undefined),101
21,CCN(CC)CCCC(C)Nc1ccnc2cc(Cl)ccc12 (centres undefined),103
22,O=C(Nc1nc2cccc(-c3ccc(CN4CC[S+](=O)([O-])CC4)cc3)n2n1)C1CC1,40.4
23,COCCOc1nc(-c2ccc(Cl)c(Cl)c2)n(-c2ccc(NC(=O)CCl)cc2)n1,85.8
24,O=c1c(-c2ccc(O)cc2)coc2cc(O[C@@H]3O[C@H](CO)[C@@H](O)[C@H](O)[C@H]3O)ccc12,135
25,COC(=O)[C@@H](N)CCCNC(=N)N[N+](=O)[O-],107
26,Cn1cc(-c2ccncc2)c(-c2ccc(OCc3ccc4ccccc4n3)cc2)n1,98.3
27,Nc1ccc(C(=O)Nc2cccc(-c3nc(N4CCOCC4)c4oc5ncccc5c4n3)c2)cn1,101

row,SMILES,viability
1,COc1cc2c(Oc3ccc(NC(=O)C4(C(=O)Nc5ccc(F)cc5)CC4)cc3F)ccnc2cc1OCCCN1CCOCC1,23.1
2,C[C@@H]1C[C@H]2[C@@H]3\C=C(C)/C4=C/C5=C(C[C@]4(C)[C@H]3[C@@H](O)C[C@]2(C)[C@@]1(O)C(=O)CO)C=N[N]5C6=CC=CC=C6,125
3,CN(C)CCCNC(=O)c1ccc(-c2cc(O)c3ncccc3c2)cc1,120
4,Cn1c(=O)c2[nH]cnc2n(C)c1=O,120
5,COc1ccc(Cc2nccc3cc(OC)c(OC)cc23)cc1OC,109
6,Cc1oncc1C(=O)Nc1ccc(C(F)(F)F)cc1,105
7,O=C(c1ccc(OCCN2CCCCC2)cc1)c1c(-c2ccc(O)cc2)sc2cc(O)ccc12,94.4
8,C=CC1=C(C(=O)O)N2C(=O)[C@@H](NC(=O)/C(=N\O)c3csc(N)n3)[C@H]2SC1,130
9,CC(Oc1ccc(O)cc1)(P(=O)(O)O)P(=O)(O)O,112
10,Clc1ccc(C(Cn2ccnc2)OCc2c(Cl)cccc2Cl)c(Cl)c1 (centres undefined),113
11,CC(C)OC(=O)OCOP(=O)(CO[C@H](C)Cn1cnc2c(N)ncnc21)OCOC(=O)OC(C)C.O=C(O)C=CC(=O)O,118 and 94.5
12,CC(C)c1ccccc1Cc1cc(C(=O)Nc2ccc([S+](=O)([O-])c3ccccc3C(C)(C)C)cc2)c(O)c(O)c1O,56.4
13,Cn1cc(-c2cnn3c(N)c(Br)c([C@H]4CCCNC4)nc23)cn1,100
14,c1ccc(CNc2nc(N3CCOc4ccccc43)nc3c2CCCC3)cc1,131
15,CN(C)CCCC1(c2ccc(F)cc2)OCc2cc(C#N)ccc21 (centres undefined),98.5
16,CCCCCCCCCCCCc1ccc([S+](=O)([O-])Nc2nncs2)cc1,118
17,O=C(O)CCNC(=O)c1ccc(/N=N/c2ccc(O)c(C(=O)O)c2)cc1,107
18,C#CCN[C@@H]1CCc2ccccc21.CS(=O)(=O)O,89
19,CC(C)NCC(O)c1ccc(NS(C)(=O)=O)cc1 (centres undefined),123
20,COC1CCC(C(=O)c2ccc3nc4c(cc3c2)CCCO4)CC1 (centres undefined),89.8
21,CCOC(=O)c1c(C)n(C)c2ccc(O)cc12,108
22,Cc1cccc(-c2nn(C(=S)Nc3ccccc3)cc2-c2ccnc3ccccc23)n1,135
23,CC(C)[C@@H](N(CCCN)C(=O)C1=CC=C(C)C=C1)C/2=N/C3=CC(=CC=C3C(=O)N2CC4=CC=CC=C4)Cl,121
24,N[C@@H]1C[C@H]1c1ccccc1,108
25,NC[C@H]1O[C@H](O[C@@H]2[C@H](O)[C@@H](O[C@H]3O[C@H](CO)[C@@H](O)[C@H](N)[C@H]3O)[C@H](N)C[C@@H]2N)[C@H](O)[C@@H](O)[C@@H]1O,103
26,COc1ccccc1N1CCN(CC(O)COc2cccc3ccccc23)CC1 (centres undefined),99.1
27,COc1ccc(-n2nc(C(N)=O)c3c2C(=O)N(c2ccc(N4CCCCC4=O)cc2)CC3)cc1,146

row,SMILES,viability
1,NC(=O)c1ccc2[nH]ccc2c1,122
2,C=CC(=O)Nc1ccc2ncnc(Nc3ccc(OCc4cccc(F)c4)c(Cl)c3)c2c1,26.3
3,C[S+](=O)([O-])c1ccc([C@@H](O)[C@@H](CO)NC(=O)C(Cl)Cl)cc1,126
4,O=C(O)CCn1c2c(c3ccccc31)C[C@H](N[S+](=O)([O-])c1ccc(F)cc1)CC2,116
5,CC\12CCC(=O)\C=C1CCC3C2CCC4(C)C3CCC4(O)C#C (centres undefined),103
6,CCCCc1oc2ccccc2c1C(=O)c1cc(I)c(OCCN(CC)CC)c(I)c1,95.4
7,CC1=CC2=C(O1)C(=C3OC(=O)\C=C(C)/C3=C2)C,111
8,OC1=CC=C(C=C1)\C2=C(O)\C(=O)C3=C(O2)C=C(O)C=C3O,160
9,COc1ccc2c(c1OC)C(=O)O[C@H]2[C@H]1c2c(cc3c(c2OC)OCO3)CCN1C,103
10,O=C(CCc1ccc(O)cc1)c1c(O)cc(O)cc1O[C@@H]1O[C@H](CO)[C@@H](O)[C@H](O)[C@H]1O,98.5
11,COc1cc(OC2CCN(C)CC2)ccc1Nc1ncc2c(n1)n(C1CCCC1)c(=O)n2C,60.4
12,Fc1ccc([C@@H]2CCNC[C@H]2COc2ccc3c(c2)OCO3)cc1,97.2
13,C=CC(=O)Nc1cc2c(Nc3ccc(F)c(Cl)c3)ncnc2cc1OCCCN1CCOCC1,81.6
14,c1ccc2c(-c3cnn4cc(-c5ccc(N6CCNCC6)cc5)cnc34)ccnc2c1,2.71
15,CCCN1CCO[C@@H]2c3cc(O)ccc3OC[C@H]21,102
16,N=C(N)NC(=N)NCCc1ccccc1,83.9
17,Cc1cn[nH]c1,126
18,COc1c(N2C[C@@H]3CCCN[C@@H]3C2)c(F)cc2c(=O)c(C(=O)O)cn(C3CC3)c12.Cl.O,133
19,O=C(c1ccc(Nc2nccc(-c3cc4ccccc4s3)n2)cc1)N1CCC(N2CCCC2)CC1,41
20,CCOC(=O)C(C)OC1=CC=CC2=C1\C=C/N(CC(=O)NC3=CC=C4OCCOC4=C3)C2=O (centres undefined),105
21,O=C(O)CCc1ccc(NCc2cccc(Oc3ccccc3)c2)cc1,122
22,O=C1C(CCC(O)c2ccc(F)cc2)C(c2ccc(O)cc2)N1c1ccc(F)cc1 (centres undefined),94.9
23,CC1(C)O[C@@H]2C[C@H]3[C@@H]4CCC5=CC(=O)C=C[C@]5(C)[C@H]4[C@@H](O)C[C@]3(C)[C@]2(C(=O)CO)O1,147
24,CC(C)c1noc(N2CCC(COc3ccc(-c4ccc([S+](C)(=O)[O-])cc4)nc3)CC2)n1,91.9
25,C=C(c1ccc(C(=O)O)cc1)c1cc2c(cc1C)C(C)(C)CCC2(C)C,97.6

# Same assay, conditions: library / dose series: MIPE library, 11-point 1:3 dilution; top concentration 92.2 µM; 48 h
row,SMILES,viability
1,C[Se]CCC(N)C(=O)O (centres undefined),98
2,CC(C)(Oc1ccc(C2CC2(Cl)Cl)cc1)C(=O)O (centres undefined),101
3,O=C(O)c1cc(O)c2c(c1)C(=O)c1cccc(O)c1C2=O,110
